Experimental data as given in US6403343B2, “Method of producing a taxane-type diterpene and a method of obtaining cultured cells which produce the taxane-type dilterpene at a high rate” (Mitsui Chemicals, Inc., priority 1993, dated 2002).

Test system: cultured cells of Taxus baccata LINN
Test: Growth rate and taxane yield, 21-day shake culture of Taxus baccata cells with heavy metal compound, amine, antiethylene agent or Ethrel added
Assay type: cell-based
Procedure: (§1) One gram (fresh weight) of the callus was inoculated to an Erlenmeyer flask containing 20 ml of liquid Woody Plant Medium to which the above-mentioned component was added to give the same concentration and shake culture was carried out with a rotary shaker (amplification of 25 mm, 100 rpm) and the callus was subcultured in every 21 days to accelerate the growth rate thereof.
Then shake culture was carried out at 25° C. for 21 days.
After completing the culture, cultured cells of Taxus baccata LINN were harvested by filtration and lyophilized, then the dry weight was measured to obtain the growth rate thereof. Taxane-type diterpenes were extracted from the dried callus with methanol and the like, and they were determined by comparing with standard taxol, cephalomannine, and baccatin III using high performance liquid chromatography to measure the yields of the taxane-type diterpenes.
as §1
One gram (fresh weight) of the cultured cells thus obtained was inoculated to an Erlenmeyer flask containing 20 ml of liquid Woody Plant Medium to which the above-mentioned component had been added to give the same concentration, then spermidine was added to it as amine to give the final concentration of 10^−9M-1M. Then shake culture was carried out at 25° C. for 21 days.
After completing the culture, cultured cells of Taxus baccata LINN were harvested by filtration and lyophilized, then the dry weight was measured to obtain the growth rate thereof. Taxane-type diterpenes were extracted from the dried cells with methanol and the like, and they were determined by comparing with standard taxol, cephalomannine, and baccatin III using high performance liquid chromatography to measure the yields of the taxane-type diterpene.
One gram (fresh weight) of the callus was inoculated to an Erlenmeyer flask containing 20 ml of liquid Woody Plant Medium to which the above-mentioned component had been added to give the same concentration and shake culture was carried out with a rotary shaker (amplification of 25 mm, 100 rpm) and the callus was subcultured in every 21 days to accelerate the growth rate thereof.
One gram (fresh weight) of the cultured cells thus obtained was inoculated to an Erlenmeyer flask containing 20 ml of liquid Woody Plant Medium to which the above-mentioned component had been added to give the same concentration, and shake culture was carried out at 25° C. for 14 days.

[1] = 2×10^−6 M added 5 times at 4 days' intervals from day 0, total 10^−5 M
[2] = 10^−1 M added at start, 21 days
[3] = 10^−2 M added at start, 21 days
[4] = 10^−3 M added at start, 21 days
[5] = 10^−4 M added at start, 21 days
[6] = 10^−5 M added at start, 21 days
[7] = 10^−5 M added on 7th day, 14 more days
[8] = 10^−5 M added on 14th day, 7 more days
[9] = 10^−5 M added on 18th day, 3 more days
[10] = 10^−5 M at start + methyl jasmonate 10^−4 M on 14th day
[11] = 10^−5 M at start + methyl jasmonate 10^−4 M on 14th day, oxygen 10% in the gas phase
[12] = 10^−5 M at start, oxygen 10% in the gas phase
[13] = 10^−6 M added at start, 21 days
[14] = 10^−7 M added at start, 21 days
[15] = 10^−8 M added at start, 21 days
[16] = 10^−9 M added at start, 21 days
[17] = 10^−3 M added on 14th day, 7 more days
[18] = Ethrel 10^−3 M added at the start (0 day), no acetylsalicylic acid, oxygen 20%
[19] = Ethrel 10^−3 M added at the start (0 day), no acetylsalicylic acid, oxygen 20%, cell + medium
[20] = 1 M added on 14th day, 7 more days
[21] = 10^−1 M added on 14th day, 7 more days
[22] = 10^−2 M added on 14th day, 7 more days
[23] = 10^−4 M added on 14th day, 7 more days
[24] = 10^−6 M added on 14th day, 7 more days
[25] = 10^−7 M added on 14th day, 7 more days
[26] = 10^−8 M added on 14th day, 7 more days
[27] = 10^−9 M added on 14th day, 7 more days

## NCCCCNCCCN [spermidine]
1 M added at start, 21 days
  growth rate: 1.4 times
  total yield of taxane: 0.21 mg/L
  yield of baccatin III: 0.10 mg/L
  yield of cephalomannine: 0.03 mg/L
  yield of taxol: 0.08 mg/L
[1]
  growth rate: 2.9 times
  total yield of taxane: 27.74 mg/L
  yield of baccatin III: 6.30 mg/L
  yield of cephalomannine: 6.01 mg/L
  yield of taxol: 15.43 mg/L
[2]
  growth rate: 2.1 times
  total yield of taxane: 3.35 mg/L
  yield of baccatin III: 0.41 mg/L
  yield of cephalomannine: 1.00 mg/L
  yield of taxol: 1.94 mg/L
[3]
  growth rate: 2.0 times
  total yield of taxane: 7.13 mg/L
  yield of baccatin III: 0.82 mg/L
  yield of cephalomannine: 2.42 mg/L
  yield of taxol: 3.89 mg/L
[4]
  growth rate: 2.9 times
  total yield of taxane: 17.31 mg/L
  yield of baccatin III: 2.63 mg/L
  yield of cephalomannine: 4.59 mg/L
  yield of taxol: 10.09 mg/L
[5]
  growth rate: 3.1 times
  total yield of taxane: 22.23 mg/L
  yield of baccatin III: 2.78 mg/L
  yield of cephalomannine: 6.49 mg/L
  yield of taxol: 12.96 mg/L
[6]
  growth rate: 3.1 times
  total yield of taxane: 33.17 mg/L
  yield of baccatin III: 6.59 mg/L
  yield of cephalomannine: 7.30 mg/L
  yield of taxol: 19.28 mg/L
[7]
  growth rate: 2.9 times
  total yield of taxane: 27.45 mg/L
  yield of baccatin III: 6.08 mg/L
  yield of cephalomannine: 6.13 mg/L
  yield of taxol: 15.24 mg/L
[8]
  growth rate: 2.9 times
  total yield of taxane: 20.98 mg/L
  yield of baccatin III: 5.46 mg/L
  yield of cephalomannine: 5.32 mg/L
  yield of taxol: 10.20 mg/L
[9]
  growth rate: 3.0 times
  total yield of taxane: 11.48 mg/L
  yield of baccatin III: 2.95 mg/L
  yield of cephalomannine: 2.90 mg/L
  yield of taxol: 5.63 mg/L
[10]
  growth rate: 2.6 times
  total yield of taxane: 50.25 mg/L
  yield of baccatin III: 18.96 mg/L
  yield of cephalomannine: 9.74 mg/L
  yield of taxol: 21.55 mg/L
[11]
  growth rate: 2.6 times
  total yield of taxane: 57.89 mg/L
  yield of baccatin III: 19.65 mg/L
  yield of cephalomannine: 8.57 mg/L
  yield of taxol: 29.67 mg/L
[12]
  growth rate: 2.7 times
  total yield of taxane: 40.29 mg/L
  yield of baccatin III: 13.43 mg/L
  yield of cephalomannine: 7.81 mg/L
  yield of taxol: 19.05 mg/L
[13]
  growth rate: 3.2 times
  total yield of taxane: 23.16 mg/L
  yield of baccatin III: 3.61 mg/L
  yield of cephalomannine: 6.04 mg/L
  yield of taxol: 13.51 mg/L
[14]
  growth rate: 3.1 times
  total yield of taxane: 18.89 mg/L
  yield of baccatin III: 1.34 mg/L
  yield of cephalomannine: 5.79 mg/L
  yield of taxol: 11.76 mg/L
[15]
  growth rate: 3.1 times
  total yield of taxane: 4.39 mg/L
  yield of baccatin III: 0.66 mg/L
  yield of cephalomannine: 1.74 mg/L
  yield of taxol: 1.99 mg/L
[16]
  growth rate: 2.9 times
  total yield of taxane: 1.21 mg/L
  yield of baccatin III: 0.31 mg/L
  yield of cephalomannine: 0.58 mg/L
  yield of taxol: 0.32 mg/L

## O=[N+]([O-])[O-].[Ag+] [silver nitrate]
[4]
  growth rate: 2.8 times
  total yield of taxane: 23.21 mg/L
  yield of baccatin III: 3.01 mg/L
  yield of cephalomannine: 7.54 mg/L
  yield of taxol: 12.66 mg/L
[17]
  growth rate: 2.8 times
  total yield of taxane: 20.58 mg/L
  yield of baccatin III: 2.18 mg/L
  yield of cephalomannine: 6.49 mg/L
  yield of taxol: 11.91 mg/L

## O=P(O)(O)CCCl [Reference Example 1]
[18]
  growth rate: 2.7 times
  total yield of taxane: 0.40 mg/L
[19]
  yield of baccatin III: 0.12 mg/L
  yield of cephalomannine: 0.14 mg/L
  yield of taxol: 0.14 mg/L

## Cl.NOCC(=O)O [aminooxyacetic acid, aminoxyacetic acid hydrochloride]
[20]
  growth rate: 0.9 times
  total yield of taxane: 0 mg/L
  yield of baccatin III: 0 mg/L
  yield of cephalomannine: 0 mg/L
  yield of taxol: 0 mg/L
[21]
  growth rate: 1.2 times
  total yield of taxane: 1.03 mg/L
  yield of baccatin III: 0.33 mg/L
  yield of cephalomannine: 0.26 mg/L
  yield of taxol: 0.44 mg/L
[22]
  growth rate: 1.5 times
  total yield of taxane: 1.93 mg/L
  yield of baccatin III: 0.32 mg/L
  yield of cephalomannine: 0.71 mg/L
  yield of taxol: 0.90 mg/L
[17]
  growth rate: 1.5 times
  total yield of taxane: 3.43 mg/L
  yield of baccatin III: 1.11 mg/L
  yield of cephalomannine: 0.71 mg/L
  yield of taxol: 1.61 mg/L
[23]
  growth rate: 1.7 times
  total yield of taxane: 5.80 mg/L
  yield of baccatin III: 1.92 mg/L
  yield of cephalomannine: 1.22 mg/L
  yield of taxol: 2.66 mg/L
[8]
  growth rate: 1.7 times
  total yield of taxane: 3.81 mg/L
  yield of baccatin III: 1.30 mg/L
  yield of cephalomannine: 1.16 mg/L
  yield of taxol: 1.35 mg/L
[24]
  growth rate: 1.5 times
  total yield of taxane: 3.00 mg/L
  yield of baccatin III: 1.08 mg/L
  yield of cephalomannine: 0.73 mg/L
  yield of taxol: 1.19 mg/L
[25]
  growth rate: 1.7 times
  total yield of taxane: 2.33 mg/L
  yield of baccatin III: 0.66 mg/L
  yield of cephalomannine: 0.65 mg/L
  yield of taxol: 1.02 mg/L
[26]
  growth rate: 1.8 times
  total yield of taxane: 2.00 mg/L
  yield of baccatin III: 0.61 mg/L
  yield of cephalomannine: 0.62 mg/L
  yield of taxol: 0.77 mg/L
[27]
  growth rate: 2.3 times
  total yield of taxane: 1.38 mg/L
  yield of baccatin III: 0.21 mg/L
  yield of cephalomannine: 0.58 mg/L
  yield of taxol: 0.59 mg/L
